# Results: US20060100168A1, “Method of treating cancer using adenosine and its analogs” (The Trustee of Boston University, priority 2002, published 2006)
# Entries after “also recorded” stand apart in the source; their conditions may differ.
# Key:
# Akt (Ser 473) = experiment: Akt phosphorylation in MCF-7 cells; type: cell-based, human; details: not shown
# [1] = test system: ERα protein in ZR-75 cells; experiment: ERα protein level in ZR-75 cells; type: cell-based, human; details: not shown
# Experimental: (§1) Western Blot Analysis: Cells were washed three times in cold 1×PBS, and collected by scraping on ice. Western blot analysis was performed as we described before with the chemiluminescence method (41). Antibodies used in this study were: ERα (NeoMarkers, Ab-15), Cyclin A (Santa Cruz Biotech, H-432), Cyclin B1 (Santa Cruz Biotech, H-433), Cyclin E (Upstate Biotech, HE-12), p27 (Santa Cruz Biotech, F-8). ERα antibody was used at 1:100 dilutions. Cyclin A, cyclin B1 and p27 antibodies were used at 1:500 dilutions. Cyclin E antibody was used at 1:1000 dilutions.
# MCF-7 cells [2] = experiment: Anchorage-independent growth (soft agar) assay; type: cell-based, human
# Experimental: (§2) Anchorage-independent growth (soft agar) assay: Soft agar assay was performed as described (40) with the following modifications. Ligands were added into the bottom and top agar before plating into 6-well plates. Cells were treated with trypsin (Invitrogen, Carlsbad, Calif.) for 5 minutes in a 37° C. incubator and pipetted several times so that most cells were in single cell forms. Cells were counted with a hemacytometer (Hausser Scientific/VWR, So. Plainfield, N.J.), and 10,000 cells were mixed with top agar and plated into each well. After the top agar had solidified, two ml of medium containing the same treatment was added on top of the agar. This covering medium was changed every two days during culture. After two weeks of culture, each well was counted for the number of colonies formed on an Olympus IX70 microscope under 40× optical amplification. A cell colony was defined as any cluster of cells that contain more than 3 cells. The average of counts from 3 random optical fields for each well was taken as the colony number and analyzed. Each treatment was performed in triplicates. The averages and standard deviations shown in the figures were calculated based on triplicate experiments.
# HeLa cells = experiment: Anchorage-independent growth (soft agar) assay; type: cell-based, human; details: 100 μM, two weeks
# Experimental: as §2
# T47D cells = experiment: Anchorage-independent growth (soft agar) assay; type: cell-based, human; details: 100 μM, two weeks
# Experimental: as §2
# Hs578T cells = experiment: Anchorage-independent growth (soft agar) assay; type: cell-based, human; details: 100 μM, two weeks
# Experimental: as §2
# ZR-75 cells = experiment: Anchorage-independent growth (soft agar) assay; type: cell-based, human; details: ZR-75 soft agar; 100 μM; two weeks
# Experimental: as §2
# [3] = in vivo application; Fishman et al. 2002; cited from earlier work
# MCF-7 cells [4] = experiment: Thymidine incorporation assay; type: cell-based, human; details: treated 24 hours before thymidine
# Experimental: (§3) Thymidine Incorporation Assay. Thymidine incorporation assays were performed as described (Zhang, Y., Wang, Z., and Ravid, K. The cell cycle in polyploid megakaryocytes is associated with reduced activity of cyclin B1-dependent cdc2 kinase. J Biol Chem, 271: 4266-4272, 1996) with modifications. Rat bone marrow cells were cultured in 25 cm^2 flasks at a concentration of 20×10^6 cells per 2 ml. After drug treatment for 24 hours, cells were incubated with ^3H-thymidine at a final concentration of 3 μCi/ml for 8 hours. For MCF-7 cells, cells were cultured in 6-well plates and incubated with ^3H-thymidine for 2 hours after drug treatment. Cells were divided into two portions, sixty percent of which were processed as described (Id.) to obtain tritium counts. The rest of the cells were lysed with Western blotting lysis buffer and protein concentrations were determined by Bio-Rad protein assay reagent (Bio-Rad, Hercules, Calif.). Tritium counts were normalized with corresponding protein concentrations to account for cell number variations.
# [5] = test system: cyclin A, cyclin B1, cyclin E, p27; experiment: Western blot of cyclins and Cdk inhibitor in MCF-7 cells; type: cell-based, human; details: 100 μM
# Experimental: as §1
# [6] = test system: estrogen receptor α (ERα); experiment: ERα protein level by Western blot in MCF-7 cells; type: cell-based, human
# Experimental: Western Blot Analysis: Cells were washed three times in cold 1×PBS, and collected by scraping on ice. Western blot analysis was performed as we described before with the chemiluminescence method (41). […] Cyclin A, cyclin B1 and p27 antibodies were used at 1:500 dilutions. Cyclin E antibody was used at 1:1000 dilutions.
# [7] = test system: ERα protein in T47D cells; experiment: ERα protein level in T47D cells; type: cell-based, human; details: not shown
# Experimental: as §1
# [8] = test system: primary rat bone marrow cells; experiment: Thymidine incorporation assay; type: cell-based; details: 24 hours, IB-MECA at 100 μM
# Experimental: as §3
# [9] = test system: estrogen receptor α (ERα) mRNA; experiment: Semi-quantitative RT-PCR of ERα mRNA in MCF-7 cells; type: cell-based, human; details: 100 μM
# Experimental: Total RNA preparation and Reverse Transcription Polymerase Chain Reaction (RT-PCR): Total RNA from MCF-7 cells was prepared with Trizol (Invitrogen, Carlsbad, Calif.) as described before (41). For reverse transcription, 2 μg of RNA were used in a […] with random primers and M-MLV reverse transcriptase (Invitrogen, Carlsbad, Calif.), following the manufacturer's protocol. To control for possible contamination from genomic DNA in subsequent PCR reactions, control reverse transcription reactions were carried out under identical conditions, only without reverse transcriptase. After reverse transcription, 5% of the product was used in each PCR reaction. For the experiments analyzing A3 adenosine receptor (A3AR) expression, 27 cycles were used in the PCR reactions. Specific primers were designed for human A3AR, which match to two separate exons, according to genomic sequences (from GenBank). Sequences for the sense and antisense A3AR primers are: 5′tccatcatgtccttgctg3′ (SEQ ID NO: 1) and 5′gcacatgacaaccaggg3′ (SEQ ID NO.: 2). In the experiments analyzing estrogen receptor a (ERα) mRNA, semi-quantitative PCR reactions were carried out with 23 cycles for ERα primers and 19 cycles for GAPDH primers (used as a control). The cycle numbers were tested in previous experiments not to produce saturation effects. […]
smiles,measurement,setting,value
"CNC(=O)[C@H]1O[C@@H](n2cnc3c(NCc4cccc(I)c4)ncnc32)[C@H](O)[C@@H]1O [IB-MECA, N^6-(3-iodobenzyl)adenosine-5′-N-methyluronamide]",Akt phosphorylation (at Ser 473),Akt (Ser 473),induced Akt phosphorylation
same,"ERα protein levels, in words",[1],Reduction of ERα protein levels
same,Concentration at which the cell growth inhibitory effect is observed,MCF-7 cells [2]; MCF-7,higher than 10 μM
same,"Effect on anchorage-independent growth (colony formation), in words","MCF-7 cells [2]; MCF-7 soft agar, different concentrations, two weeks",dose-dependent inhibition
same,"Colony formation, in words",HeLa cells,mild response
same,"Colony formation, in words",T47D cells,dramatic decrease in colony formation
same,"Colony formation, in words",Hs578T cells,dramatic decrease in colony formation
same,"Colony formation, in words",ZR-75 cells,dramatic decrease in colony formation
same,Effect on blood cell counts,[3],no inhibitory effect
same,Thymidine incorporation decreased to,MCF-7 cells [4],28%
same,Cyclin A and B1 levels,[5],downregulated
same,Cyclin E levels,[5],elevated
same,cdk inhibitor p27 level,[5],sharp increase
same,ERα Level,"[6]; 12 hours, 100 μM, except adenosine (500 μM), Western blot quantitated, vehicle control set to 1, average of two experiments",0.23
same,"ERα protein level, in words",[6]; Western blot,decreased
same,ERα protein degradation,"[6]; protein synthesis inhibited by cycloheximide 50 μg/ml, 100 μM",did not notice any significant change in ERα protein degradation
same,"ERα protein levels, in words",[7],Reduction of ERα protein levels
same,Thymidine incorporation reduced to,[8],68%
same,Time of first sign of decrease of ERα mRNA,[9],4 h
same,"ERα mRNA level, in words","[9]; 4 to 24 hours, compared to GAPDH",strongly downregulated; also recorded: dramatic decrease
